This assay can be described thus: Average number of small diameter microparticles per colored resin particle (SEM count after polymerization). The following applies: aqueous dispersion after polymerization process; SEM 5,000 magnification, 25 particles. The text has this:
The average number of small diameter microparticles per colored resin particle is a value calculated in such a manner that aqueous dispersion containing colored resin particles after polymerization process is collected and prepared to be a sample for measurement with a scanning electron microscopy (SEM); the prepared sample is photographed at 5,000 magnification in five fields of view by means of the scanning electron microscopy; five colored resin particles are randomly selected in each image; the number of small diameter microparticles observed on the surface of 25 colored resin particles in total is counted; and the average number of small microparticles per colored resin is calculated therefrom.
The number of small diameter microparticles per colored resin particle can be measured by means of a commercially available scanning electron microscopy. For example, it can be measured by means of a field emission scanning electron microscopy (product name: S-4700; manufactured by: Hitachi, Ltd.). […]
The sample was randomly photographed in five fields of view, and five colored resin particles were randomly selected in each image to count the number of small diameter microparticles observed on the surface of 25 colored resin particles in total. The average number of small diameter microparticles per colored resin particle was calculated therefrom.

SMILES strings stand for the structures.

For the molecule `Oc1ccc(O)cc1` [A, Hydroquinone], the “Average number of small diameter microparticles per colored resin particle” value was “weak”.

Source of the values: patent publication US8092974B2, “Production method of toner for developing electrostatic image” (Zeon Corporation, priority 2006, dated 2012).
